Data as given in PubChem BioAssay (NCI).
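Compound exposure: 48 hours, 5 concentrations, 96-well plates. At the GI50, growth is halved. The concentration for full growth arrest is given as TGI.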

Tests used:
Experiment in all cases: growth of human tumour cells (NCI), 48 h; in the data active = GI50 below about 0.43 µM; inactive = the rest
CAKI-1 renal = system: CAKI-1 renal
RXF 393 renal = system: RXF 393 renal
NCI/ADR-RES ovarian = system: NCI/ADR-RES ovarian
786-0 renal = system: 786-0 renal
SN12C renal = system: SN12C renal
HT29 colon = system: HT29 colon
RPMI-8226 leukemia = system: RPMI-8226 leukemia
SF-539 CNS = system: SF-539 CNS
MDA-MB-231 breast = system: MDA-MB-231 breast
HCT-15 colon = system: HCT-15 colon
BT-549 breast = system: BT-549 breast
OVCAR-4 ovarian = system: OVCAR-4 ovarian
SK-MEL-2 melanoma = system: SK-MEL-2 melanoma
HCT-116 colon = system: HCT-116 colon
HS 578T breast = system: HS 578T breast
U251 CNS = system: U251 CNS
MCF7 breast = system: MCF7 breast
NCI-H23 lung = system: NCI-H23 lung
SK-MEL-28 melanoma = system: SK-MEL-28 melanoma
OVCAR-8 ovarian = system: OVCAR-8 ovarian
EKVX NSCLC = system: EKVX NSCLC
MDA-N = system: MDA-N
A549 NSCLC = system: A549 NSCLC
CCRF-CEM leukemia = system: CCRF-CEM leukemia
SK-MEL-5 melanoma = system: SK-MEL-5 melanoma
IGROV1 ovarian = system: IGROV1 ovarian
LOX IMVI melanoma = system: LOX IMVI melanoma
MDA-MB-435 = system: MDA-MB-435
SF-295 CNS = system: SF-295 CNS
A498 renal = system: A498 renal
SK-OV-3 ovarian = system: SK-OV-3 ovarian
MOLT-4 leukemia = system: MOLT-4 leukemia
SNB-19 CNS = system: SNB-19 CNS
SW-620 colon = system: SW-620 colon
KM12 colon = system: KM12 colon
NCI-H460 lung = system: NCI-H460 lung
ACHN renal = system: ACHN renal
TK-10 renal = system: TK-10 renal
NCI-H226 lung = system: NCI-H226 lung
COLO 205 colon = system: COLO 205 colon
SR leukemia = system: SR leukemia
UACC-62 melanoma = system: UACC-62 melanoma
M14 melanoma = system: M14 melanoma
MALME-3M melanoma = system: MALME-3M melanoma
PC-3 prostate = system: PC-3 prostate
SNB-75 CNS = system: SNB-75 CNS
DU-145 prostate = system: DU-145 prostate
SF-268 CNS = system: SF-268 CNS
UACC-257 melanoma = system: UACC-257 melanoma
HL-60(TB) leukemia = system: HL-60(TB) leukemia
HOP-92 NSCLC = system: HOP-92 NSCLC
HOP-62 NSCLC = system: HOP-62 NSCLC
NCI-H522 lung = system: NCI-H522 lung
K-562 leukemia = system: K-562 leukemia
OVCAR-5 ovarian = system: OVCAR-5 ovarian
T-47D breast = system: T-47D breast
UO-31 renal = system: UO-31 renal
OVCAR-3 ovarian = system: OVCAR-3 ovarian
HCC-2998 colon = system: HCC-2998 colon
DMS 273 small cell lung = system: DMS 273 small cell lung
HOP-18 NSCLC = system: HOP-18 NSCLC
DLD-1 colon = system: DLD-1 colon
SNB-78 CNS = system: SNB-78 CNS
KM20L2 colon = system: KM20L2 colon

O=C(O)CCC(=O)c1ccc2ccc3cccc4ccc1c2c34
68 µM: TGI (SF-539 CNS)
> 100 µM: TGI (CAKI-1 renal) | TGI (RXF 393 renal) | TGI (NCI/ADR-RES ovarian) | TGI (786-0 renal) | TGI (SN12C renal) | TGI (HT29 colon) | TGI (RPMI-8226 leukemia) | TGI (MDA-MB-231 breast) | TGI (HCT-15 colon) | TGI (BT-549 breast) | TGI (OVCAR-4 ovarian) | TGI (SK-MEL-2 melanoma) | TGI (HCT-116 colon) | TGI (HS 578T breast) | TGI (U251 CNS) | TGI (MCF7 breast) | TGI (NCI-H23 lung) | TGI (SK-MEL-28 melanoma) | TGI (OVCAR-8 ovarian) | TGI (EKVX NSCLC) | TGI (MDA-N) | TGI (A549 NSCLC) | TGI (CCRF-CEM leukemia) | TGI (SK-MEL-5 melanoma) | TGI (IGROV1 ovarian) | TGI (LOX IMVI melanoma) | TGI (MDA-MB-435) | TGI (SF-295 CNS) | TGI (A498 renal) | TGI (SK-OV-3 ovarian) | TGI (MOLT-4 leukemia) | TGI (SNB-19 CNS) | TGI (SW-620 colon) | TGI (KM12 colon) | TGI (NCI-H460 lung) | TGI (ACHN renal) | TGI (TK-10 renal) | TGI (NCI-H226 lung) | TGI (COLO 205 colon) | TGI (SR leukemia) | TGI (UACC-62 melanoma) | TGI (M14 melanoma) | TGI (MALME-3M melanoma) | TGI (PC-3 prostate) | TGI (SNB-75 CNS) | TGI (DU-145 prostate) | TGI (SF-268 CNS) | TGI (UACC-257 melanoma) | TGI (HL-60(TB) leukemia) | TGI (HOP-92 NSCLC) | TGI (HOP-62 NSCLC) | TGI (NCI-H522 lung) | TGI (K-562 leukemia) | TGI (OVCAR-5 ovarian) | TGI (T-47D breast) | TGI (UO-31 renal) | TGI (OVCAR-3 ovarian) | TGI (HCC-2998 colon)

CC/C(=C(/CC)c1ccc([O-])cc1)c1ccc([O-])cc1.CC/C(=C(\CC)c1ccc([O-])cc1)c1ccc([O-])cc1.O=C([CH-]C(=O)c1ccccc1)c1ccccc1.O=C([CH-]C(=O)c1ccccc1)c1ccccc1.O=C([CH-]C(=O)c1ccccc1)c1ccccc1.O=C([CH-]C(=O)c1ccccc1)c1ccccc1.[Ti+4].[Ti+4]
47.9 µM: TGI (A549 NSCLC)
58.5 µM: TGI (CAKI-1 renal)
53.1 µM: TGI (DLD-1 colon)
42.3 µM: TGI (RXF 393 renal)
50 µM: TGI (HOP-92 NSCLC)
inactive: GI50 (CAKI-1 renal) 23.5 µM | GI50 (RXF 393 renal) 14.7 µM | GI50 (786-0 renal) 16.9 µM | GI50 (SN12C renal) 47.1 µM | GI50 (HT29 colon) 29.8 µM | GI50 (RPMI-8226 leukemia) 71.4 µM | GI50 (SF-539 CNS) 20 µM | GI50 (HCT-15 colon) 39.4 µM | GI50 (OVCAR-4 ovarian) 42.9 µM | GI50 (SK-MEL-2 melanoma) 25.8 µM | GI50 (HCT-116 colon) 28.8 µM | GI50 (U251 CNS) 24.9 µM | GI50 (NCI-H23 lung) 25.9 µM | GI50 (SK-MEL-28 melanoma) 39.5 µM | GI50 (DMS 273 small cell lung) 28.7 µM | GI50 (OVCAR-8 ovarian) 20.7 µM | GI50 (EKVX NSCLC) 45.5 µM | GI50 (A549 NSCLC) 18.9 µM | GI50 (CCRF-CEM leukemia) 21 µM | GI50 (IGROV1 ovarian) 41.9 µM | GI50 (LOX IMVI melanoma) 43 µM | GI50 (HOP-18 NSCLC) 83.4 µM | GI50 (SF-295 CNS) 19.9 µM | GI50 (SK-OV-3 ovarian) 30.8 µM | GI50 (MOLT-4 leukemia) 27.7 µM | GI50 (DLD-1 colon) 19.8 µM | GI50 (SNB-19 CNS) 22.6 µM | GI50 (SW-620 colon) 21.4 µM | GI50 (KM12 colon) 26.3 µM | GI50 (NCI-H460 lung) 25.2 µM | GI50 (ACHN renal) 35.2 µM | GI50 (TK-10 renal) 45.2 µM | GI50 (NCI-H226 lung) 28.1 µM | GI50 (COLO 205 colon) 37.9 µM | GI50 (SR leukemia) 58.5 µM | GI50 (UACC-62 melanoma) 18.9 µM | GI50 (M14 melanoma) 20.7 µM | GI50 (MALME-3M melanoma) 30.9 µM | GI50 (SF-268 CNS) 35.8 µM | GI50 (UACC-257 melanoma) 28 µM | GI50 (HL-60(TB) leukemia) > 100 µM | GI50 (SNB-78 CNS) 72.4 µM | GI50 (KM20L2 colon) 29.5 µM | GI50 (HOP-92 NSCLC) 19.5 µM | GI50 (HOP-62 NSCLC) 22.5 µM | GI50 (K-562 leukemia) 23.9 µM | GI50 (OVCAR-5 ovarian) 45.8 µM | GI50 (UO-31 renal) 35 µM | GI50 (OVCAR-3 ovarian) 24.9 µM | GI50 (HCC-2998 colon) 45.7 µM
56.2 µM: TGI (SNB-19 CNS)
72.2 µM: TGI (UO-31 renal)
40.8 µM: TGI (SF-539 CNS)
97.3 µM: TGI (NCI-H23 lung)
> 100 µM: TGI (SN12C renal) | TGI (HT29 colon) | TGI (RPMI-8226 leukemia) | TGI (HCT-15 colon) | TGI (OVCAR-4 ovarian) | TGI (HCT-116 colon) | TGI (SK-MEL-28 melanoma) | TGI (DMS 273 small cell lung) | TGI (EKVX NSCLC) | TGI (IGROV1 ovarian) | TGI (LOX IMVI melanoma) | TGI (HOP-18 NSCLC) | TGI (MOLT-4 leukemia) | TGI (KM12 colon) | TGI (NCI-H460 lung) | TGI (ACHN renal) | TGI (TK-10 renal) | TGI (COLO 205 colon) | TGI (SR leukemia) | TGI (MALME-3M melanoma) | TGI (SF-268 CNS) | TGI (UACC-257 melanoma) | TGI (HL-60(TB) leukemia) | TGI (SNB-78 CNS) | TGI (K-562 leukemia) | TGI (OVCAR-5 ovarian) | TGI (OVCAR-3 ovarian) | TGI (HCC-2998 colon)
78.8 µM: TGI (M14 melanoma)
61.2 µM: TGI (NCI-H226 lung)
74.4 µM: TGI (SK-OV-3 ovarian)
73.5 µM: TGI (SK-MEL-2 melanoma)
52.4 µM: TGI (UACC-62 melanoma)
77.8 µM: TGI (KM20L2 colon)
51.6 µM: TGI (SW-620 colon)
82 µM: TGI (U251 CNS)
32.4 µM: TGI (786-0 renal)
93.8 µM: TGI (CCRF-CEM leukemia)
51.3 µM: TGI (HOP-62 NSCLC)
50.1 µM: TGI (OVCAR-8 ovarian)
42.6 µM: TGI (SF-295 CNS)
